This note sets out measurements from patent US20090233907A1, “Pyridopyrimidine Derivatives and Their Use as PDE4 Inhibitors” (ASTRAZENECA AB, priority 2006, published 2009).

T1 sequence (Q07343 1-564 isoform Q07343-2): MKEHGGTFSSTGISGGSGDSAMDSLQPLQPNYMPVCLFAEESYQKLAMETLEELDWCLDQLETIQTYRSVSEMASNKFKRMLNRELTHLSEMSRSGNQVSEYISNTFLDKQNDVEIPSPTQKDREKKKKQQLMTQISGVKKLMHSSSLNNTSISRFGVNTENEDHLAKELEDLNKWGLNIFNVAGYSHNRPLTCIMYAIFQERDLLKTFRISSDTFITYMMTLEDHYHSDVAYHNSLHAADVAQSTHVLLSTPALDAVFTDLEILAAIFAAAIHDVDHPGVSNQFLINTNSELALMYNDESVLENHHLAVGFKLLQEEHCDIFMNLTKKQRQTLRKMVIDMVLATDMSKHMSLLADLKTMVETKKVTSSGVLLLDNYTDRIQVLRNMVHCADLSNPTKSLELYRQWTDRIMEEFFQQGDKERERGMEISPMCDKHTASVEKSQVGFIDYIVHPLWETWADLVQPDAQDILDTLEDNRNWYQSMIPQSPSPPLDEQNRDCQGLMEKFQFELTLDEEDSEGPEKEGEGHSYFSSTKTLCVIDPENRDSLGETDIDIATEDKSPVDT

In the first assay the target is T1, recombinant Human Phosphodiesterase B2 (PDE4B2) (Homo sapiens, UniProt Q07343). The assay can be described thus: Human Phosphodiesterase B2 Radiometric Assay. The format is biochemical. The note with it: radiometric SPA assay, [3H]cyclic AMP 8 nM, read-out: PDE4B2 pIC50 (converted). On the procedure:
Human Phosphodiesterase B2 Radiometric Assay
The assay uses recombinant Human Phosphodiesterase B2 (PDE4B2) produced in house (PrAZL0163), stored at −20° C. This assay is based on the observation that 5′AMP, the product of the reaction catalysed by PDE4, binds preferentially to yttrium silicate SPA beads (Amersham Biosciences, UK) compared to the substrate, cAMP. Compounds at the appropriate concentration were preincubated at 30 C for 30 min with an assay buffer containing 50 mM HEPES (pH 7.5), 8.3 mM MgCl2, 1.7 mM EGTA, 0.01% (w/v) Brij®35 and 0.1 μg/mL recombinant PDE4B2. The reaction was started by the addition of [3H]cyclic AMP to give a final concentration of 8 nM, and was stopped 20 minutes after the addition of the substrate by the addition of yttrium silicate SPA beads containing 18 mM Zn SO4. Bound [3H]cyclic AMP was measured using a Topcount NXT (Packard Bioscience, UK). pIC50 values (presented in Table 5) were determined using Xlfit3 curve fitting, using model 205.
`O=C(N[C@H]1CC[C@@H](n2c(=O)c3cc(F)cnc3n(C3CCSCC3)c2=O)CC1)c1cn2c(n1)CCCC2` [Example 33, N-{cis-4-[6-fluoro-2,4-dioxo-1-(tetrahydro-2H-thiopyran-4-yl)-1,4-dihydropyrido[2,3-d]pyrimidin-3(2H)-yl]cyclohexyl}-5,6,7,8-tetrahydroimidazo[1,2-a]pyridine-2-carboxamide]: the IC50 was 0.398 nM.
With `O=C(N[C@H]1CC[C@@H](n2c(=O)c3cc(F)cnc3n(C3CCSCC3)c2=O)CC1)c1cn2cc(F)ccc2n1` [Example 41, 6-fluoro-N-{cis-4-[6-fluoro-2,4-dioxo-1-(tetrahydro-2H-thiopyran-4-yl)-1,4-dihydropyrido[2,3-d]pyrimidin-3(2H)-yl]cyclohexyl}imidazo[1,2-a]pyridine-2-carboxamide], the IC50 is 0.126 nM.
The same measure, in the same setting: under `CN(C)c1ccc(C(=O)NC2CCC(n3c(=O)c4cc(F)cnc4n(C4CCSCC4)c3=O)CC2)cc1` (stereo not shown) [Example 67, 4-dimethylamino-N-[4-(9-fluoro-2,4-dioxo-5-tetrahydrothiopyran-4-yl-3,5,7-triazabicyclo[4.4.0]deca-6,8,10-trien-3-yl)cyclohexyl]benzamide] stands 0.501 nM; under `O=C(N[C@H]1CC[C@@H](n2c(=O)c3cc(F)cnc3n(C3CCSCC3)c2=O)CC1)C(O)c1ccc(O)cc1` (stereo partly drawn) [Example 64b, N-{cis-4-[6-fluoro-2,4-dioxo-1-(tetrahydro-2H-thiopyran-4-yl)-1,4-dihydropyrido[2,3-d]pyrimidin-3(2H)-yl]cyclohexyl}-2-hydroxy-2-(4-hydroxyphenyl)acetamide], 0.316 nM.

The target of a further assay is T1, recombinant Human Phosphodiesterase B2 (PDE4B2). Briefly: Human Phosphodiesterase B2 Alpha Screen Assay. The format is biochemical. The note with it: Alpha Screen cAMP assay. On the procedure: Human Phosphodiesterase B2 Alpha Screen Assay
The assay uses recombinant Human Phosphodiesterase B2 (PDE4B2) produced in house (PrAZL0133), stored at −20° C. The substrate uses cAMP, part of the Alpha Screen cAMP kit (Perkin Elmer, Cat# 6760625M), stored at 4° C. The Alpha Screen kit also includes biotinylated cAMP, acceptor and donor beads.
The assay additions were as follows: Test compounds and controls were added to white 384-well flat-bottom plates (Greiner, Cat# 781075), 0.2 μl in 100% DMSO, followed by 10 μl PDE4B2 in reaction buffer. The reaction buffer constitution was: 50 mM Tris (pH 7.5), 8.3 mM MgCl2, 1.7 mM EGTA and 0.01% (w/v) Brij®35. The enzyme and the compounds were incubated at room temperature for 15 minutes. Then 10 μl cAMP in reaction buffer was added. The assay was stopped after 60 minutes incubation at room temperature by adding 10 μl acceptor beads in detection buffer with 40 mM EDTA. The detection buffer constitution was: 5 mM Tris (pH 7.5), 0.1% (w/v) BSA and 0.1% (v/v) Tween 20. This addition followed by an addition of 10 μl donor beads in detection buffer, with biotinylated cAMP. The plates were then incubated, dark at room temperature, for 5 hours followed by measurement on a Fusion™-α analyser. IC50 values (presented in Table 4) were determined using Xlfit curve fitting using model 205.
On the technique in general: Cyclic AMP is a second messenger, typically raised through Gs and lowered through Gi signalling.
For the compound `O=C(N[C@H]1CC[C@@H](n2c(=O)c3cc(F)cnc3n(C3CCSC3)c2=O)CC1)c1cn2ccccc2n1` (relative stereo) [Example 28, N-{cis-4-[6-fluoro-2,4-dioxo-1-(tetrahydro-3-thienyl)-1,4-dihydropyrido[2,3-d]pyrimidin-3(2H)-yl]cyclohexyl}imidazo[1,2-a]pyridine-2-carboxamide], the IC50 came to 0.97 nM.
Still for that read-out and setting: next, `O=C(N[C@H]1CC[C@@H](n2c(=O)c3cc(F)cnc3n(C3CCSCC3)c2=O)CC1)c1cccc2cccnc12` [Example 3, N-{cis-4-[6-fluoro-2,4-dioxo-1-(tetrahydro-2H-thiopyran-4-yl)-1,4-dihydropyrido[2,3-d]pyrimidin-3(2H)-yl]cyclohexyl}quinoline-8-carboxamide]: 1.31 nM; `O=C(N[C@H]1CC[C@@H](n2c(=O)c3cc(F)cnc3n(C3CCSCC3)c2=O)CC1)c1n[nH]c2ccccc12` [Example 5, N-{cis-4-[6-fluoro-2,4-dioxo-1-(tetrahydro-2H-thiopyran-4-yl)-1,4-dihydropyrido[2,3-d]pyrimidin-3(2H)-yl]cyclohexyl}-1H-indazole-3-carboxamide]: 1.35 nM; `O=C(N[C@H]1CC[C@@H](n2c(=O)c3cc(F)cnc3n(C3CCSCC3)c2=O)CC1)C1CC1` [Example 1, N-{cis-4-[6-Fluoro-2,4-dioxo-1-(tetrahydro-2H-thiopyran-4-yl)-1,4-dihydropyrido[2,3-d]pyrimidin-3(2H)-yl]cyclohexyl}cyclopropanecarboxamide]: 4.59 nM.
Still for that read-out and setting: next, `Cc1ccc(C(=O)N[C@H]2CC[C@@H](n3c(=O)c4cc(F)cnc4n(C4CCSC4)c3=O)CC2)c(O)c1` (relative stereo) [Example 31, N-{cis-4-[6-fluoro-2,4-dioxo-1-(tetrahydro-3-thienyl)-1,4-dihydropyrido[2,3-d]pyrimidin-3(2H)-yl]cyclohexyl}-2-hydroxy-4-methylbenzamide]: 2.75 nM.
The same measure, in the same setting: next, `COc1cc(C(=O)N[C@H]2CC[C@@H](n3c(=O)c4cc(F)cnc4n(C4CCSCC4)c3=O)CC2)ccc1O` [Example 11, N-{cis-4-[6-fluoro-2,4-dioxo-1-(tetrahydro-2H-thiopyran-4-yl)-1,4-dihydropyrido[2,3-d]pyrimidin-3(2H)-yl]cyclohexyl}-4-hydroxy-3-methoxybenzamide]: 1.61 nM.
